The target in one assay is T1, FimA-EF-N81ter (Dictyostelium discoideum, UniProt P54680).
T1 construct: EF-hand headpiece domain truncated before switch helix H5 (N81ter), residues 1-80; N-terminal 6His-tag with TEV site, tag cleaved; E. coli BL21(DE3)
T1 sequence (P54680 1-80): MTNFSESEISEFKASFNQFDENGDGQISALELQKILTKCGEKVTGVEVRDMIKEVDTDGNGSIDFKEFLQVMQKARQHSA
Briefly: 1H, […]-HSQC NMR titration. It is filed as binding.

The target in a further assay is T2, FimA-EF (Dictyostelium discoideum, UniProt P54680).
T2 construct: EF-hand headpiece domain with switch helix H5, residues 1-93; pET15b, N-terminal 6His-tag with TEV site, tag cleaved; E. coli BL21(DE3)
T2 sequence (P54680 1-93): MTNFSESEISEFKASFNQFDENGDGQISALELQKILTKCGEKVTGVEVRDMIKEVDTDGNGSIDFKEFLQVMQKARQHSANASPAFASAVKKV
Briefly: 1H, […]-HSQC NMR titration (chemical shift changes). It is filed as binding. Particulars: 25 °C, pH 7.0; Ca2+-bound; site of switch helix H5.

The target in assay [1] is L-plastin H5 peptide H5 (Homo sapiens) (UniProt P13796). Particulars: cited from earlier work.
Assay [2] concerns the target T3, FimA-EF-N81ter (EF-hand domain of the Dictyostelium discoideum FimA headpiece, residues 1-80, lacking the H5 … (Dictyostelium discoideum, UniProt P54680 1-80)).
T3 construct: FimA (fimbrin) of Dictyostelium discoideum, UniProtKB P54680, headpiece truncated by a stop codon at N81: residues 1-80, omits the entire H5 region; Made by site-directed mutagenesis of the synthetic FimA 1-93 gene in pET15b (NdeI/XhoI) with an N-terminal 6His-tag and a TEV site; The methods say the last 12 amino acids are deleted, but 1-80 of 1-93 removes 13; also called …
T3 sequence (looked up): T1 sequence (P54680 1-80)
Briefly: NMR titration; 15N-labelled FimA-EF-N81ter titrated with the H5 peptide, 1H,15N-HSQC, chemical shift changes fitted, fast exchange; 25 °C, 100 mM KCl, 20 mM Bis-Tris pH 7.0, 10 mM DTT. The note with it: both partners purified.

These results are taken from article PMC10533516, “The Dictyostelium discoideum FimA protein, unlike yeast and plant fimbrins, is regulated by calcium similar to mammalian plastins” (Scientific Reports, 2023).

By Kd is commonly meant the constant that tells how readily two partners part at equilibrium. Take `CN1CCN(CCCN2c3ccccc3Sc3ccc(C(F)(F)F)cc32)CC1` [TFP]: at FimA-EF-N81ter, the Kd came out at 1.5 µM. In addition, the “1H,15N-HSQC NMR titration (chemical shift changes)” value at FimA-EF is “Both TFP and W7 caused significant chemical shift changes in the HSQC spectrum of FimA-EF”.
`NCCCCCCNS(=O)(=O)c1cccc2c(Cl)cccc12` [W7] came in with a Kd at FimA-EF-N81ter of 3.8 µM. For the same molecule, on FimA-EF, the “1H,15N-HSQC NMR titration (chemical shift changes)” value is “Both TFP and W7 caused significant chemical shift changes in the HSQC spectrum of FimA-EF”.
“L-plastin EF-hand domain (from UniProt P13796)”: in assay [1], the Kd is 3.5 µM.

B1: H5 peptide (14-residue synthetic peptide encompassing the H5 / putative regulatory switch-helix region of FimA) (peptide)
peptide: Ac-SANASPAFASAVKK-NH2
notes: Stretch of FimA of Dictyostelium discoideum (UniProtKB P54680) encompassing the putative regulatory domain (H5); Limits worked out from the printed positions N81, P84 and F86; also called synthetic H5 peptide; source: synthetic peptide, obtained from Genscript (purity over 95%)
B1: the Kd in assay [2] stood at 300 µM.
